Experimental data as given in the NIST ThermoML archive (doi:10.1016/j.jct.2015.08.028).
Numbers after ± are expanded uncertainties.

Columns and labels:
[1] = Crystal; DTA
[2] = Molar enthalpy of transition or fusion; details: Crystal; DSC

For `CC1=C(O)C(=O)C(C)O1` (configuration not stated) [4-hydroxy-2,5-dimethyl-3(2H)-furanone], the Normal melting temperature [1] was 80.8 ± 1.6 °C and the “Molar enthalpy of transition or fusion” value [2] was 4.61 ± 0.12 kcal/mol.
